The numbers were not newly measured in patent US20190021998A1, “TOPICAL NANOEMULSION THERAPY FOR WOUNDS” (THE REGENTS OF THE UNIVERSITY OF MICHIGAN, priority 2014, published 2019), which cites them from elsewhere.

Molecules are shown by their SMILES.

For the data set the following is noted: footnote *.

As for `CCCCCCCCCCCCCCCCCC[N+](C)(C)CCCCCCCCCCCCCCCCCC` [DODAC, Dioctadecyl dimethyl ammonium chloride], the “CMC (mM), critical concentration for unilamellar vesicles” value was 10* mM.
